The values that follow come from patent US6451802B1, “S-oxide lipid lowering compounds” (Janssen Pharmaceutica N.V., priority 1998, dated 2002).

pIC50: −log10 of the molar value.

For one data set, the target named is T1, Dog MTP (Canis lupus familiaris, UniProt A0A8I3S8Z7).
T1 sequence (A0A8I3S8Z7 18-893): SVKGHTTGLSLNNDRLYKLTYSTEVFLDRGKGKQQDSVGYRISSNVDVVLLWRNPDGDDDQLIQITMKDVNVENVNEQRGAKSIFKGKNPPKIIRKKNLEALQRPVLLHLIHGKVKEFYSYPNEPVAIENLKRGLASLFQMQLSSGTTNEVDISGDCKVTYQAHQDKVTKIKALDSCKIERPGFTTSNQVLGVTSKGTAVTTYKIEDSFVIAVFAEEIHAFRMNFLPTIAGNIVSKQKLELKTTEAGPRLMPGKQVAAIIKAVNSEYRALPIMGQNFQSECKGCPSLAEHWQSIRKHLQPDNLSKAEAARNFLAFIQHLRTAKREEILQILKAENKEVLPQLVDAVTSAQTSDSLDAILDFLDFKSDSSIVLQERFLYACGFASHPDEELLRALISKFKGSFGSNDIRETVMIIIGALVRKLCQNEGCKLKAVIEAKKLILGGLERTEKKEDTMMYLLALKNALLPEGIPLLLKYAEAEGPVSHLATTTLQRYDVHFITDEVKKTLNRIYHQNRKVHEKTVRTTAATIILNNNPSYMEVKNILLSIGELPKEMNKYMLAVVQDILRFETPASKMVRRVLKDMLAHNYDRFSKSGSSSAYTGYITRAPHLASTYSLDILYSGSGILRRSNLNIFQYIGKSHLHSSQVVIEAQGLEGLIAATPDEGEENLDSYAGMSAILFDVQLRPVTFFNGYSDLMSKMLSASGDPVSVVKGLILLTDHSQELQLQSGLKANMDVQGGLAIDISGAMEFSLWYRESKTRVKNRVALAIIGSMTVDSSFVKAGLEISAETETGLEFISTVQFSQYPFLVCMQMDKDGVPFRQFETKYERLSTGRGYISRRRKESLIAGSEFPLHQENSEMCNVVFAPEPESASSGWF
The data set can be described thus: MTP assay (triglyceride transfer from donor to acceptor vesicles). The data set is classed as biochemical. Conditions: drug concentration that corresponds with 50% of control values. How it is done: MTP activity was measured using an assay similar to one described by J. R. Wetterau and D. B. Zilversmit in Chemistry and Physics of Lipids, 38, 205-222 (1985). To prepare the donor and acceptor vesicles, the appropriate lipids in chloroform were put into a glass test tube and dried under a stream of N2. A buffer containing 15 mM Tris-HCl pH 7.5, 1 mM EDTA, 40 mM NaCl, 0.02% NaN3 (assay buffer) was added to the dried lipid. The mixture was vortexed briefly and the lipids were then allowed to hydrate for 20 min on ice. Vesicles were then prepared by bath sonication (Branson 2200) at room temperature for maximum 15 min. Butylated hydroxytoluene was included in all vesicle preparations at a concentration of 0.1%. The lipid transfer assay mixture contained donor vesicles (40 nmol phosphatidylcholine, 7.5 mol % of cardiolipin and 0.25 mol % glycerol tri [1-^14C]-oleate), acceptor vesicles (240 nmol phosphatidylcholine) and 5 mg BSA in a total volume of 675 μl in a 1.5 ml microcentrifuge tube. Test compounds were added dissolved in DMSO (0.13% final concentration). After 5 minutes of pre-incubation at 37° C., the reaction was started by the addition of MTP in 100 μl dialysis buffer. The reaction was stopped by the addition of 400 μl DEAE-52 cellulose pre-equilibrated in 15 mM Tris-HCI pH 7.5, 1 mM EDTA, 0.02% NaN3 (1:1, vol/vol). The mixture was agitated for 4 min and centrifuged for 2 min at maximum speed in an Eppendorf centrifuge (4° C.) to pellet the DEAE-52-bound donor vesicles. An aliquot of the supernatant containing the acceptor liposomes was counted and the [^14C]-counts were used to calculate the percent triglyceride transfer from donor to acceptor vesicles. Resulting IC50 values are enumerated in Table C.1.

A short description of data set [1]: Plasma levels in a clinical trial on human volunteers. The data set is classed as in vivo. The following applies: for share of the total AUC, compounds 1, 2 and 3 together: one value for the three compounds combined. The text has this:
Plasma levels of compounds 1, 2 and 3 and of compound A have been measured in a clinical trial on human volunteers.

For another data set, the system named is HepG2 cells. The data set can be described thus: Quantification of the secretion of ApoB in HepG2 cells. The following applies: 24 hours of incubation, calculated by non-linear regression analysis. The data set is classed as cell-based. How it is done:
HepG2 cells were cultured in 24-well plates in MEM Rega 3 containing 10% fetal calf serum. At 70% confluency, the medium was changed and the test compound or carrier (DMSO, 0.4% final concentration) was added. After 24 hours of incubation, the medium was transferred to Eppendorf tubes and cleared by centrifugation. A sheep antibody directed against either apoB was added to the supernatant and the mixture was kept at 8° C. for 24 hours. Then, rabbit anti-sheep antibody was added and the immune complex was allowed to precipitate for 24 hours at 8° C. The immunoprecipitate was pelleted by centrifugation for 25 min at 1320 g and washed twice with a buffer containing 40 mM Mops, 40 mM NaH2PO4, 100 mM NaF, 0.2 mM DTT, 5 mM EDTA, 5 mM EGTA, 1% Triton-X-100, 0.5% sodium deoxycholate (DOC), 0.1% SDS, 0.2 μM leupeptin and 0.2 μM PMSF. Radioactivity in the pellet was quantified by liquid scintillation counting. Resulting IC50 values are enumerated in Table C. 1.

[2] abbreviates: human volunteers, single 200 mg dose administration of compound A.

With `CCC(C)n1ncn(-c2ccc(N3CCN(c4ccc(OC[C@@H]5CO[C@@](CS(=O)(=O)c6nncn6C)(c6ccc(Cl)cc6)O5)cc4)CC3)cc2)c1=O` (relative stereo) [Compound 1, [2S-[2α,4α(S*)]]-4-[4-[4-[4-[[2-(4-chloropheny)-2-[[(4-methyl-4H-1,2,4-triazol-3-yl)sulfonyl]methyl]-1,3-dioxlan-4-yl]methoxy]phenyl]-1-piperazinyl]phenyl]-2,4-dihydro-2-(1-methylpropyl)-3H-1,2,4-triazol-3-one], the pIC50 was 8.21 against Dog MTP and 7.21 with HepG2 cells (Homo sapiens, HepG2, 24 h). The “clearance compared with compound A” value in data set [1] (human volunteers) was “slower than clearance of compound A”. The “share of the total AUC, compounds 1, 2 and 3 together” value (“share … 2 and 3 together” for short) in data set [1] (setting [2]) was determined as 92%.
Take `CCC(C)n1ncn(-c2ccc(N3CCN(c4ccc(OCC5COC(C[S+]([O-])c6nncn6C)(c6ccc(Cl)cc6)O5)cc4)CC3)cc2)c1=O` (single isomer, unassigned) [Compound 2]: the pIC50 against Dog MTP was 6.93; in the data set on HepG2 cells, 6.03. The “clearance compared with compound A” value in data set [1] (human volunteers) is on record as “slower than clearance of compound A”. The “share … 2 and 3 together” value in data set [1] (setting [2]) is 92%.
On to `CCC(C)n1ncn(-c2ccc(N3CCN(c4ccc(OCC5COC(C[S+]([O-])c6nncn6C)(c6ccc(Cl)cc6)O5)cc4)CC3)cc2)c1=O` (single isomer, unassigned) [Compound 3, [2S-[2α(B),4α(S*)]]-4-[4-[4-[4-[[2-(4-chlorophenyl)-2-[[(4-methyl-4H-1,2,4-traizol-3yl]sulfinyl]methyl]-1,3-dioxolan-4-yl]methoxy]phenyl]-1-piperazinyl]Phenyl-2,4-dihydro-2-(1-methylpropyl)-3H-1,2,4-traizol-3-one], for which the pIC50 is 7.96 at Dog MTP and 7.03 with HepG2 cells. Further, the “clearance compared with compound A” value in data set [1] (human volunteers) is “slower than clearance of compound A”. In addition, the “share … 2 and 3 together” value in data set [1] (setting [2]) was found to be 92%.
For the compound `CC[C@@H](C)n1ncn(-c2ccc(N3CCN(c4ccc(OC[C@@H]5CO[C@@](CSc6nncn6C)(c6ccc(Cl)cc6)O5)cc4)CC3)cc2)c1=O` [compound A, (−)-[2S-[2α,4α(S*)]]-4-[4-[4-[4-[[-2-(4-chlorophenyl)-2-[[(4-methyl-4H-1,2,4-triazol-3-yl)thio]methyl]-1,3-dioxolan-4-yl]methoxy]phenyl]-1-piperazinyl]phenyl]-2,4-dihydro-2-(1-methylpropyl)-3H-1,2,4-triazol-3-one, reference compound], the negative-log IC50 (pIC50) on Dog MTP was 8.12; in the data set on HepG2 cells (Homo sapiens, HepG2, 24 h), 7.60. The “share of the total AUC (Area Under the Curve)” value in data set [1] (setting [2]) amounted to 8%. Further, in data set [1] (human, in vivo), the “metabolisation on passing the liver (first-pass)” value is “extensive metabolisation”.

One may read the pIC50 as −log10 of the IC50, conventionally taken in molar units.
